Data taken from ChEMBL document CHEMBL3585330, “Anticancer activity of koningic acid and semisynthetic derivatives” (Bioorg Med Chem, 2015).
Calls of active or inactive are those of the source. The rule behind the calls is not given here.

What was measured:
[1] = Antiproliferative activity against human NAMALWA cells assessed as inhibition of cell proliferation incubated for 72 hrs by conventional ATP quantification method; format: functional, cell-based; settings: NAMALVA
A-375 [2] = experiment: Antiproliferative activity against human A375 cells assessed as inhibition of cell proliferation incubated for 72 hrs by conventional ATP quantification method; format: functional, cell-based; settings: A-375, 72 h
A549 [3] = experiment: (§1) Antiproliferative activity against human A549 cells assessed as inhibition of cell proliferation incubated for 72 hrs by conventional ATP quantification method; format: functional, cell-based; settings: A549, 72 h
HCT-116 [4] = experiment: (§2) Antiproliferative activity against human HCT116 cells assessed as inhibition of cell proliferation incubated for 72 hrs by conventional ATP quantification method; format: functional, cell-based; settings: HCT-116, 72 h
[5] = Antiproliferative activity against human WM266.4 cells assessed as inhibition of cell proliferation incubated for 72 hrs by conventional ATP quantification method; format: functional, cell-based; settings: WM 266-4, 72 h
A549 [6] = experiment: Antitumor activity against human A549 cells xenografted in Swiss mouse assessed as reduction of subcutaneous tumor growth at 1 mg/kg, ip dosed every day for 5 consecutive days during 2 weeks (q1d5 x 2 schedule); format: functional, organism-based
MDA-MB-231 [7] = experiment: Cytotoxicity against human MDA-MB-231 cells incubated for 72 hrs under normoxic conditions by MTS assay; format: functional, cell-based
MDA-MB-231 [8] = experiment: Cytotoxicity against human MDA-MB-231 cells incubated for 72 hrs under hypoxic conditions by MTS assay; format: functional, cell-based
Mus musculus [9] = experiment: Toxicity in Swiss mouse xenografted with human A549 cells assessed as induction of renal toxicity at 2.5 and 5 mg/kg, ip dosed every day for 5 consecutive days during 2 weeks (q1d5 x 2 schedule); format: organism-based; settings: in vivo, 336 h
[10] = Oral bioavailability in mouse at 2.5 mg/kg by tandem HPLC-mass spectrometry; format: ADME, organism-based; settings: in vivo
HT-29 [11] = experiment: Cytotoxicity against human HT-29 cells incubated for 72 hrs under hypoxic conditions by MTS assay; format: functional, cell-based
[12] = AUClast in mouse at 2.5 mg/kg, po by tandem HPLC-mass spectrometry; format: ADME, organism-based; set-up: dose 2.5 mg/kg, route oral, time 0 - last; settings: in vivo
[13] = Antiproliferative activity against human BxPC3 cells assessed as inhibition of cell proliferation incubated for 72 hrs by conventional ATP quantification method; format: functional, cell-based; settings: BXPC-3, 72 h
KM12 = experiment: Antiproliferative activity against human KM12 cells assessed as inhibition of cell proliferation incubated for 72 hrs by conventional ATP quantification method; format: functional, cell-based; settings: KM12, 72 h
[14] = Tmax in mouse at 2.5 mg/kg, po by tandem HPLC-mass spectrometry; format: ADME, organism-based; settings: in vivo
[15] = Antiproliferative activity against human KG1 cells assessed as inhibition of cell proliferation incubated for 72 hrs by conventional ATP quantification method; format: functional, cell-based; settings: KG-1, 72 h
[16] = Cmax in mouse at 2.5 mg/kg, po by tandem HPLC-mass spectrometry; format: ADME, organism-based; set-up: dose 2.5 mg/kg, route oral; settings: in vivo
MDA-MB-231 [17] = experiment: Antiproliferative activity against human MDA-MB-231 cells assessed as inhibition of cell proliferation incubated for 72 hrs by conventional ATP quantification method; format: functional, cell-based; settings: MDA-MB-231, 72 h
[18] = Half life in mouse at 1.5 mg/kg, ip by tandem HPLC-mass spectrometry; format: ADME, organism-based; settings: in vivo
HOP-62 = experiment: Antiproliferative activity against human HOP62 cells assessed as inhibition of cell proliferation incubated for 72 hrs by conventional ATP quantification method; format: functional, cell-based; settings: HOP-62, 72 h
[19] = AUClast in mouse at 1.5 mg/kg, ip by tandem HPLC-mass spectrometry; format: ADME, organism-based; set-up: dose 1.5 mg/kg, route intraperitoneal, time 0 - last; settings: in vivo
[20] = Cmax in mouse at 1.5 mg/kg, ip by tandem HPLC-mass spectrometry; format: ADME, organism-based; set-up: dose 1.5 mg/kg, route intraperitoneal; settings: in vivo
PANC-1 = experiment: Induction of ROS generation in human PANC1 cells incubated for 1 hr by DCFH-DA dye based assay; format: functional, cell-based
Mus musculus [21] = experiment: Toxicity in Swiss mouse xenografted with human A549 cells assessed as induction of body weight loss at 2.5 mg/kg, ip dosed every day for 4 consecutive days during 2 weeks (q1d4 x 2 schedule); format: organism-based; settings: in vivo, 336 h
A-375 [22] = experiment: Inhibition of cell invasion of human A375 cells at 10 uM by Boyden chamber assay; format: functional, cell-based
HCT-116 [23] = experiment: as §2; format: functional, cell-based; settings: HCT-116, 72 h; remark: listed apart in the source
NCI-H460 = experiment: Antiproliferative activity against human NCI-H460 cells assessed as inhibition of cell proliferation incubated for 72 hrs by conventional ATP quantification method; format: functional, cell-based; settings: NCI-H460, 72 h
T47D = experiment: Antiproliferative activity against human T47D cells assessed as inhibition of cell proliferation incubated for 72 hrs by conventional ATP quantification method; format: functional, cell-based
DU-145 = experiment: Antiproliferative activity against human DU145 cells assessed as inhibition of cell proliferation incubated for 72 hrs by conventional ATP quantification method; format: functional, cell-based; settings: DU-145, 72 h
TK-10 = experiment: Antiproliferative activity against human TK10 cells assessed as inhibition of cell proliferation incubated for 72 hrs by conventional ATP quantification method; format: functional, cell-based; settings: TK-10, 72 h
Mus musculus [24] = experiment: Toxicity in Swiss mouse xenografted with human A549 cells assessed as induction of icterus at 2.5 mg/kg, ip dosed every day for 4 consecutive days during 2 weeks (q1d4 x 2 schedule); format: organism-based; settings: in vivo, 336 h
[25] = Initial plasma concentration in mouse at 0.5 mg/kg, iv by tandem HPLC-mass spectrometry; format: ADME, organism-based
OVCAR-3 = experiment: Antiproliferative activity against human OVCAR3 cells assessed as inhibition of cell proliferation incubated for 72 hrs by conventional ATP quantification method; format: functional, cell-based; settings: OVCAR-3, 72 h
A549 [26] = experiment: as §1; format: functional, cell-based; settings: A549, 72 h; remark: listed apart in the source
A549 [27] = experiment: Antitumor activity against human A549 cells xenografted in Swiss mouse aggressive tumor model assessed as effect on rate of tumor growth at 1 mg/kg, ip dosed every day for 5 consecutive days during 2 weeks (q1d5 x 2 schedule); format: functional, organism-based
HT-29 [28] = experiment: Cytotoxicity against human HT-29 cells incubated for 72 hrs under normoxic conditions by MTS assay; format: functional, cell-based
A-375 [29] = experiment: Toxicity against human A375 cells assessed as membrane integrity by measuring LDH release incubated for 24 hrs; format: cell-based; settings: a-375, 24 h
[30] = Half life in mouse at 2.5 mg/kg, po by tandem HPLC-mass spectrometry; format: ADME, organism-based; settings: in vivo
HL-60 = experiment: Antiproliferative activity against human HL60 cells assessed as inhibition of cell proliferation incubated for 72 hrs by conventional ATP quantification method; format: functional, cell-based; settings: HL-60, 72 h
[31] = Half life in mouse at 0.5 mg/kg, iv by tandem HPLC-mass spectrometry; format: ADME, organism-based; settings: in vivo
[32] = Toxicity in Swiss mouse xenografted with human A549 cells dosed intraperitoneally every day for 5 consecutive days during 2 weeks (q1d5 x 2 schedule); format: organism-based; settings: in vivo, ip
[33] = Tmax in mouse at 1.5 mg/kg, ip by tandem HPLC-mass spectrometry; format: ADME, organism-based; settings: in vivo
A-375 [34] = experiment: Toxicity against human A375 cells assessed as reduction in cell viability at 10 uM; format: cell-based; settings: a-375, 10 µM
A-375 [35] = experiment: Antiproliferative activity against human A375 cells assessed as inhibition of cell proliferation incubated for 24 hrs by conventional ATP quantification method; format: functional, cell-based; settings: A-375, 24 h
[36] = Antiproliferative activity against human COLO205 cells assessed as inhibition of cell proliferation incubated for 72 hrs by conventional ATP quantification method; format: functional, cell-based; settings: COLO 205, 72 h
SK-OV-3 = experiment: Antiproliferative activity against human SKOV3 cells assessed as inhibition of cell proliferation incubated for 72 hrs by conventional ATP quantification method; format: functional, cell-based; settings: SK-OV-3, 72 h
A-375 [37] = experiment: Antiproliferative activity against human A375 cells assessed as inhibition of cell proliferation incubated for 24 hrs by conventional ATP quantification method relative to untreated control; format: functional
[38] = AUClast in mouse at 0.5 mg/kg, iv by tandem HPLC-mass spectrometry; format: ADME, organism-based; set-up: dose 0.5 mg/kg, route intravenous, time 0 - last; settings: in vivo
A549 [39] = experiment: Antitumor activity against human A549 cells xenografted in Swiss mouse assessed as effect on median tumor volume at 1 mg/kg, ip dosed every day for 5 consecutive days during 2 weeks (q1d5 x 2 schedule); format: functional, organism-based
Mus musculus [40] = experiment: Toxicity in Swiss mouse xenografted with human A549 cells assessed as induction of hepatic toxicity at 2.5 and 5 mg/kg, ip dosed every day for 5 consecutive days during 2 weeks (q1d5 x 2 schedule); format: organism-based; settings: in vivo, 336 h

SMILES: CNC(=O)C1=C[C@@H]2[C@@H](C(C)C)CC[C@@]3(CO3)[C@H]2C(=O)OC1
- IC50 [1]: 1.28 µM
- IC50 (A-375 [2]): 4.15 µM
- IC50 (A549 [3]): 5.54 µM
- IC50 (HCT-116 [4]): 7.1 µM
- IC50 [5]: 5.9 µM

SMILES: COC(=O)C1=C[C@@H]2[C@@H](C(C)C)CC[C@@]3(CO3)[C@H]2C(=O)OC1
- IC50 [1]: 1.74 µM
- IC50 (A-375 [2]): 4.09 µM
- IC50 (A549 [3]): 0.45 µM
- IC50 (HCT-116 [4]): 2.19 µM
- IC50 [5]: 4.1 µM

SMILES: CC(C)[C@H]1CC[C@@]2(CO2)[C@H]2C(=O)OCC(C(=O)O)=C[C@H]12
- Activity (A549 [6]): inactive
- IC50 [1]: 0.302 µM
- Activity (MDA-MB-231 [7]): Active
- Activity (MDA-MB-231 [8]): Active
- IC50 (A-375 [2]): 1.34 µM
- Activity (Mus musculus [9]): Toxic
- bioavailability [10]: 17%
- Activity (HT-29 [11]): Active
- AUC(0-t) [12]: 8.6 ng·h/mL
- IC50 [13]: 0.76 µM
- IC50 (KM12): 0.41 µM
- Tmax [14]: 15 min
- IC50 [15]: 0.4 µM
- IC50 (A549 [3]): 0.458 µM
- IC50 (HCT-116 [4]): 0.21 µM
- Cmax [16]: 17 ng/mL
- IC50 (MDA-MB-231 [17]): 0.45 µM
- half-life [18]: 6 min
- IC50 (HOP-62): 0.51 µM
- AUC(0-t) [19]: 78.7 ng·h/mL
- IC50 [5]: 0.509 µM
- Cmax [20]: 249 ng/mL
- Activity (PANC-1): inactive
- Activity (Mus musculus [21]): > 15%
- inhibition (A-375 [22]): inactive
- IC50 (HCT-116 [23]): 0.93 µM
- IC50 (NCI-H460): 0.49 µM
- IC50 (T47D): 0.21 µM
- IC50 (DU-145): 0.89 µM
- IC50 (TK-10): 0.66 µM
- Activity (Mus musculus [24]): Toxic
- C0 [25]: 180 ng/mL
- IC50 (OVCAR-3): 0.69 µM
- IC50 (A549 [26]): 0.99 µM
- Activity (A549 [27]): inactive
- Activity (HT-29 [28]): Active
- Activity (A-375 [29]): 8%
- half-life [30]: 30 min
- IC50 (HL-60): 0.76 µM
- half-life [31]: 2.4 min
- MTD at 336 h [32]: 1 mg/kg
- Tmax [33]: 15 min
- Activity (A-375 [34]): 81%
- IC50 (A-375 [35]): 1.26 µM
- IC50 [36]: 0.63 µM
- IC50 (SK-OV-3): 0.34 µM
- inhibition (INH) (A-375 [37]): 90%
- AUC(0-t) [38]: 10.4 ng·h/mL
- Activity (A549 [39]): inactive
- Activity (Mus musculus [40]): Toxic

SMILES: CC(C)[C@H]1CC[C@@](O)(CCl)[C@H]2C(=O)OCC(C(=O)OCc3ccc(-c4ccccc4)o3)=C[C@H]12
- IC50 [1]: 1.11 µM
- IC50 (A-375 [2]): 4 µM
- IC50 (A549 [3]): 1.72 µM
- IC50 (HCT-116 [4]): 0.61 µM
- IC50 [5]: 2.91 µM

SMILES: CC(C)[C@H]1CC[C@@]2(CO2)[C@H]2C(=O)OCC(C(=O)OCc3ccc(-c4ccc([N+](=O)[O-])cc4)o3)=C[C@H]12
- IC50 [1]: 1.19 µM
- IC50 (A-375 [2]): 1.64 µM
- IC50 (A549 [3]): 0.45 µM
- IC50 (HCT-116 [4]): 0.62 µM
- IC50 [5]: 3.6 µM

SMILES: CC(C)[C@H]1CC[C@@](O)(CO)[C@H]2C(=O)OCC(C(=O)O)=C[C@H]12
- IC50 [1]: > 32 µM
- IC50 (A-375 [2]): > 32 µM
- IC50 (A549 [3]): > 32 µM
- IC50 (HCT-116 [4]): > 32 µM
- IC50 [5]: > 32 µM
